Assay results published in patent US20240269293A1, “PROTEIN-MACROMOLECULE CONJUGATES AND METHODS OF USE THEREOF” (BEIJING XUANYI PHARMASCIENCES CO., LTD., priority 2021, published 2024).
Like-named read-outs stand apart in the source and are kept apart here.

What was measured:
[1] = tested on: metastatic melanoma and renal cell carcinoma; conditions: high-dose regimen administered every eight hours; cited from earlier work
[2] = tested on: MC38 murine colon carcinoma; experiment: Subcutaneous MC38 murine colon carcinoma syngeneic model; type: in vivo, C57BL/6 mouse; conditions: 2 mg/kg IP b.i.d. × 5, 2 cycles
Procedure: 1×10^6 MC38 cells in 0.1 ml of PBS were implanted subcutaneously for each 7-10 weeks old syngeneic female C57BL/6 mouse in the right front flank region. Tumors were allowed to grow to palpable size, i.e., 80-100 cu mm before randomization and assigning groups (n=3) as designed. The mice were administered test compounds i.e., IL-2, rIL-2-polymer conjugates of vehicle at different dose concentrations and dose regimes as indicated in Table 12. The body weights and tumor volumes were measured three times per week.
(§1) Tumor growth inhibition following the administration of rIL-2 and rIL-2-polymer conjugates at different administration schemes were provided in FIG. 8. The tumor growth inhibition (TGI) for different treatment groups, complete response (CR) rate, and toxicity were shown in Table 13. Tumor Growth Inhibition; TGI %=(1−ΔT/ΔC)×100; Ti and Ci as the mean tumor volumes of the treatment and vehicle groups on the measurement day; T0 and C0 as the mean tumor volumes of the treatment and vehicle groups on Day 0.

NK cells = experiment: pSTAT5 signaling in human LRS-derived PBMC, NK cells (flow cytometry); type: cell-based; conditions: 45 minute incubation
Procedure: (§2) To determine how test compounds affect activation of primary immune cell subpopulations, concentration-response profiling of lymphocyte activation in human LRS-derived peripheral blood mononuclear cell (PBMC) samples were performed using multi-color flow cytometry.
(§3) An LRS was acquired day of draw and PBMC was extracted using a ficoll density gradient protocol. PBMC was resuspended in RPMI supplemented with 10% Fetal Bovine Serum and 1% Pen-Strep Glutamine. PBMC was incubated at 37° C. for 30 minutes prior to stimulation.
(§4) A 12-point dose curve with 5-fold dilutions was created for all compounds. Top dose was 30 ug mL. Dose curves were diluted in PBS w/0.1% BSA and added as 10× stocks. After a 45 minute incubation, samples were fixed and stained with antibodies to detect the phosphorylated form of the transcription factor STAT5 (pTATA5), and a panel of surface markers to follow pSTAT5 formation in specific T Cell and natural killer (NK) cell subpopulation.
(§5) Samples were stained with the following pre-perm panel: CD3, CD25, CD8, CD56, CD16, CD4, Dump (CD14), Dump (CD19), and CD127. Stains were incubated for 30 minutes then washed out. Streptavidin BV421 (Biolegend cat #405225) was then added and incubated for 20 minutes. Streptavidin was washed out and samples were MeOH permed and stained with the following post-perm panel: FOXP3. STAT5, Dump (CD15). Stains were incubated for 60 minutes then washed out and analyzed by flow cytometry.
(§6) Flow cytometry data were analyzed for activation of different T and NK cell subsets in concentration-response mode, reading pSTAT5 accumulation after treatment with test compounds. The median fluorescence intensity for pSTAT5 was used to create the dose curves. EC50 values for NK cells, Treg cells, CD8+ T cells were calculated from the concentration-response curves.

[3] = tested on: CT26 murine colon carcinoma; type: in vivo
Procedure: 5×10^5 CT26 cells in 0.1 ml of PBS were implanted subcutaneously for each 7-10 weeks old syngeneic female BALB/c mouse in the right front flank region. Tumors were allowed to grow to palpable size, i.e., 80-110 cu mm before randomization and assigning groups (n=8) as designed. The mice were administered test compounds i.e., rIL-2, rIL-2-polymer conjugates of vehicle at different dose concentrations and dose regimes as indicated in Tables 6-8. The body weights and tumor volumes were measured three times per week. Mice that have been tumor free for more than 30 days were re-challenged in the left front flank with CT26 tumor cells (5×10^5) in 0.1 mal of PBS.
as §1, with “FIGS. 5A-7B.” for “FIG. 8.”, “rate, toxicity” for “rate,”, “rechallenge results” for “toxicity”, “Tables 9-11.” for “Table 13.”

Treg cells = experiment: pSTAT5 signaling in human LRS-derived PBMC, Treg cells (flow cytometry); type: cell-based; conditions: 45 minute incubation
Procedure: as §2, §3, §4, §5, §6

CTLL-2 cells = experiment: CTLL-2 cell proliferation assay; type: cell-based, mouse
Procedure: CTLL-2 cells (mouse cytotoxic T lymphocyte cell line) were maintained in complete RPMI 1640 medium supplemented with 10% fetal bovine serum, and 10% IL-2 culture supplement (T-STIM™ with ConA (concanavalin-A)) at 37° C. under a 5% CO2 atmosphere. The cells were cultured in suspension until they reach a cell density of 2-3×10^5 cells/ml before splitting.
For the activity assay, 3-4 days after the last split, the cells were washed three times in Dulbecco's phosphate buffered saline. The cells were then re-suspended in supplemented media without T-STIM™ at a cell density of ˜5×10^5 cells/mL, and plated in 96-well white walled clear bottom microplates at 90 μl/well. Experiments were also conducted using supplemented media (without T-STIM™) adjusted to pH 6.7-7, in order to minimize the release of conjugates during the course of incubation. Then, 10 μl of 10× concentrations of test compound, diluted in supplemented media without T-STIM™, was added. The cells were incubated at 37° C. in a 5% CO2 atmosphere for 48 hours.
The activity of both released IL-2 and unreleased conjugates were tested. The test compounds were stored under acidic condition (10 mM, sodium acetate buffer, pH 4) to stabilize conjugation. To test the activity of conjugates, the sample was diluted from the storage buffer into supplemented media ˜ one hour prior to the assay. […]

CD8+ T cells = experiment: pSTAT5 signaling in human LRS-derived PBMC, CD8+ T cells (flow cytometry); type: cell-based; conditions: for pSTAT5 EC50, CD8+ T cells: 45 minute incubation
Procedure: as §2, §3, §4, §5, §6

[4] = Table 9, 2 mg/kg IP b.i.d. × 5, 2 cycles
[5] = Table 11, 2 mg/kg IP b.i.d. × 5, 2 cycles

Substance: aldesleukin
- Durable responses [1]: up to 25%

Substance: Example 24: recombinant IL-2 of SEQ ID NO:1 expressed in E. coli, used as control
- TGI (day 15) ([2]; Table 13 (FIG. 8)): 100.75%
- CR (day 38) (tumor free mice/mice treated) ([2]; Table 13): 1/8
- pSTAT5 EC50, NK cells (NK cells; Run 1): 9.34 ng/mL
- pSTAT5 EC50, NK cells (NK cells; Run 2): 22.02 ng/mL
- pSTAT5 EC50, NK cells (NK cells; Run 3): 4.01 ng/mL
- TGI (day 19) ([3]; Table 9 (FIGS. 5A-5B), 2 mg/kg IP b.i.d. × 5, 2 cycles): 61.76%
- CR (tumor free mice/mice treated) [3, 4]: 1/8
- Re-challenge (final tumor free mice/re-challenged mice) [3, 4]: 1/1
- TGI (day 3) ([3]; Table 10 (FIGS. 6A-6B), 3 mg/kg (first cycle) IP, 2 mg/kg (second cycle) IV, b.i.d. × 5, 2 cycles): 95.71% (day 3)
- CR (tumor free mice/mice treated) ([3]; Table 10, 3, 2 mg/kg b.i.d. × 5, 2 cycles): 0/8
- TGI (day 17) ([3]; Table 11 (FIGS. 7A-7B), 2 mg/kg IP b.i.d. × 5, 2 cycles): 102.41%
- CR (tumor free mice/mice treated) [3, 5]: 1/8
- Re-challenge (final tumor free mice/re-challenged mice) [3, 5]: 1/1
- pSTAT5 EC50, Treg cells (Treg cells; Run 1): 0.04 ng/mL
- pSTAT5 EC50, Treg cells (Treg cells; Run 2): 0.26 ng/mL
- pSTAT5 EC50, Treg cells (Treg cells; Run 3): 0.02 ng/mL
- EC50 (CTLL-2 cells; Table 3A, 48 hour incubation, CCK8): 1.03 pM
- EC50, CTLL-2 cell proliferation (CTLL-2 cells; Table 3B, unreleased conjugate (rIL-2 control as such)): 0.78 ng/mL
- CD8/Treg ratio (pSTAT5 EC50) (CD8+ T cells; Run 1): 928
- pSTAT5 EC50, CD8+ T cells (CD8+ T cells; Run 1): 37.10 ng/mL
- CD8/Treg ratio (pSTAT5 EC50) (CD8+ T cells; Run 2): 302
- pSTAT5 EC50, CD8+ T cells (CD8+ T cells; Run 2): 78.50 ng/mL
- CD8/Treg ratio (pSTAT5 EC50) (CD8+ T cells; Run 3): 1874
- pSTAT5 EC50, CD8+ T cells (CD8+ T cells; Run 3): 37.48 ng/mL
